Data on 2 compounds can be found in ChEMBL document CHEMBL5678812, “Inhibitors of p21-activated kinases (PAKs)” (J Med Chem, 2015).

For orientation: inhibition means the drop in the measured response relative to a control, in per cent.

Assay [1] concerns the target Mitogen-activated protein kinase kinase kinase kinase 4 (Homo sapiens) (UniProt O95819). In words: Inhibition of NIK (unknown origin) at 0.1 uM relative to control.
For assay [2], the target named is DNA-PK/Ku70/Ku85 (Homo sapiens) (UniProt P78527+P12956+P13010). Description: Inhibition of DNA-PK (unknown origin) at 0.1 uM relative to control. The format is protein-complex assay.
Assay [3] addresses RAC-beta serine/threonine-protein kinase (Homo sapiens) (UniProt P31751). In words: Inhibition of AKT2 (unknown origin) at 0.1 uM relative to control.
Assay [4] has as its target G protein-coupled receptor kinase 6 (Homo sapiens) (UniProt P43250). Description: Inhibition of GRK6 (unknown origin) at 0.1 uM relative to control.
Assay [5] deals with Casein kinase I isoform delta (Homo sapiens) (UniProt P48730). Description: Inhibition of CK1delta (unknown origin) at 0.1 uM relative to control.
Assay [6] has as its target Serine/threonine-protein kinase Nek6 (Homo sapiens) (UniProt Q9HC98). Description: Inhibition of NEK6 (unknown origin) at 0.1 uM relative to control.
Assay [7] concerns the target Insulin receptor (Homo sapiens) (UniProt P06213). Description: Inhibition of InsR (unknown origin) at 0.1 uM relative to control.
In assay [8] the target is Serine/threonine-protein kinase Sgk1 (Homo sapiens) (UniProt O00141). Description: Inhibition of SGK1 (unknown origin) at 0.1 uM relative to control.
The target in assay [9] is Casein kinase I isoform gamma-1 (Homo sapiens) (UniProt Q9HCP0). Description: Inhibition of CK1gamma1 (unknown origin) at 0.1 uM relative to control.
The target of assay [10] is Aurora kinase B (Homo sapiens) (UniProt Q96GD4). Description: Inhibition of Aurora B (unknown origin) at 0.1 uM relative to control.
Assay [11] has as its target T1, Cyclin-dependent kinase 5/CDK5 activator 1 (Homo sapiens) (UniProt Q00535+Q15078). Description: Inhibition of CDK5/p35 (unknown origin) at 0.1 uM relative to control. It is filed as protein-complex assay.
The target in assay [12] is Proto-oncogene tyrosine-protein kinase ROS (Homo sapiens) (UniProt P08922). Description: Inhibition of Ros (unknown origin) at 0.1 uM relative to control.
Assay [13] addresses Tyrosine-protein kinase Lyn (Homo sapiens) (UniProt P07948). Description: Inhibition of Lyn (unknown origin) at 0.1 uM relative to control.
The target of assay [14] is Death-associated protein kinase 3 (Homo sapiens) (UniProt O43293). Description: Inhibition of ZIPK (unknown origin) at 0.1 uM relative to control.
In assay [15] the target is Tyrosine-protein kinase FRK (Homo sapiens) (UniProt P42685). Description: Inhibition of Frk (unknown origin) at 0.1 uM relative to control.
For assay [16], the target named is Receptor tyrosine-protein kinase erbB-2 (Homo sapiens) (UniProt P04626). Description: Inhibition of ErbB2 (unknown origin) at 0.1 uM relative to control.
The target in assay [17] is Beta-adrenergic receptor kinase 1 (Homo sapiens) (UniProt P25098). Description: Inhibition of GRK2 (unknown origin) at 0.1 uM relative to control.
Assay [18] addresses Ribosomal protein S6 kinase alpha-5 (Homo sapiens) (UniProt O75582). In words: Inhibition of MSK1 (unknown origin) at 0.1 uM relative to control.
The target in assay [19] is T1, Cyclin-dependent kinase 5/CDK5 activator 1 (Homo sapiens). In words: Inhibition of CDK5/p25 (unknown origin) at 0.1 uM relative to control. The format is protein-complex assay.
For assay [20], the target named is Tyrosine-protein kinase Yes (Homo sapiens) (UniProt P07947). Description: Inhibition of Yes (unknown origin) at 0.1 uM relative to control.
The target of assay [21] is MAP kinase-activated protein kinase 3 (Homo sapiens) (UniProt Q16644). Description: Inhibition of MAPKAPK3 (unknown origin) at 0.1 uM relative to control.
Assay [22] has as its target MAP kinase-activated protein kinase 2 (Homo sapiens) (UniProt P49137). Description: Inhibition of MAPKAPK2 (unknown origin) at 0.1 uM relative to control.
Assay [23] deals with Calcium/calmodulin-dependent protein kinase type IV (Homo sapiens) (UniProt Q16566). Description: Inhibition of CamKIV (unknown origin) at 0.1 uM relative to control.
The target of assay [24] is Serine/threonine-protein kinase BRSK1 (Homo sapiens) (UniProt Q8TDC3). In words: Inhibition of BrSK1 (unknown origin) at 0.1 uM relative to control.
Assay [25] concerns the target Casein kinase I isoform alpha (Homo sapiens) (UniProt P48729). In words: Inhibition of CK1alpha1 (unknown origin) at 0.1 uM relative to control.
Assay [26] addresses Homeodomain-interacting protein kinase 2 (Homo sapiens) (UniProt Q9H2X6). In words: Inhibition of HIPK2 (unknown origin) at 0.1 uM relative to control.
The target in assay [27] is Rho-associated protein kinase 2 (Homo sapiens) (UniProt O75116). Description: Inhibition of ROCK2 (unknown origin) at 0.1 uM relative to control.
Assay [28] deals with cGMP-dependent protein kinase 1 (Homo sapiens) (UniProt Q13976). Description: Inhibition of PKG1alpha (unknown origin) at 0.1 uM relative to control.
In assay [29] the target is Calcium/calmodulin-dependent protein kinase type II subunit delta (Homo sapiens) (UniProt Q13557). Description: Inhibition of CaMKIIdelta (unknown origin) at 0.1 uM relative to control.
The target in assay [30] is Angiopoietin-1 receptor (Homo sapiens) (UniProt Q02763). In words: Inhibition of Tie2 (unknown origin) at 0.1 uM relative to control.
In assay [31] the target is CDK8/Cyclin C (Homo sapiens) (UniProt P49336+P24863). In words: Inhibition of CDK8/CyclinC (unknown origin) at 0.1 uM relative to control. The format is protein-complex assay.
For assay [32], the target named is Cyclin-dependent kinase 7/ cyclin H (Homo sapiens) (UniProt P51946+P50613). Description: Inhibition of CDK7/CyclinH (unknown origin) at 0.1 uM relative to control. It is filed as protein-complex assay.
Another assay is filed under the species Homo sapiens. Description: Inhibition of KHS1 (unknown origin) at 0.1 uM relative to control.
The target in assay [33] is Phosphatidylinositol 4,5-bisphosphate 3-kinase catalytic subunit gamma isoform (Homo sapiens) (UniProt P48736). Description: Inhibition of PI3Kgamma (unknown origin) at 0.1 uM relative to control.
Assay [34] addresses Leucine-rich repeat serine/threonine-protein kinase 2 (Homo sapiens) (UniProt Q5S007). In words: Inhibition of LRRK2 (unknown origin) at 0.1 uM relative to control.
Assay [35] deals with NUAK family SNF1-like kinase 1 (Homo sapiens) (UniProt O60285). In words: Inhibition of ARK5 (unknown origin) at 0.1 uM relative to control.
Assay [36] has as its target Serine/threonine-protein kinase NLK (Homo sapiens) (UniProt Q9UBE8). Description: Inhibition of NLK (unknown origin) at 0.1 uM relative to control.
Assay [37] has as its target Ephrin type-B receptor 1 (Homo sapiens) (UniProt P54762). In words: Inhibition of EphB1 (unknown origin) at 0.1 uM relative to control.
In assay [38] the target is Serine/threonine-protein kinase Chk2 (Homo sapiens) (UniProt O96017). In words: Inhibition of CHK2 (unknown origin) at 0.1 uM relative to control.

T1 sequence (Q00535 whole entry): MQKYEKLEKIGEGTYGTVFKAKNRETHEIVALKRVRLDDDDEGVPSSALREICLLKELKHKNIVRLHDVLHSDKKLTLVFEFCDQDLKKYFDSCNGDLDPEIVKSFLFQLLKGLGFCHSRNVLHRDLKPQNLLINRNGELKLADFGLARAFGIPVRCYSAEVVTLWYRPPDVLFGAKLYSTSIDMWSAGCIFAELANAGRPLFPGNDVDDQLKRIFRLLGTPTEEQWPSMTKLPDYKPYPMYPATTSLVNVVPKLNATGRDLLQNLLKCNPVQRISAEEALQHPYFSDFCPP
T1 sequence (Q15078 99-307 partner limits assumed): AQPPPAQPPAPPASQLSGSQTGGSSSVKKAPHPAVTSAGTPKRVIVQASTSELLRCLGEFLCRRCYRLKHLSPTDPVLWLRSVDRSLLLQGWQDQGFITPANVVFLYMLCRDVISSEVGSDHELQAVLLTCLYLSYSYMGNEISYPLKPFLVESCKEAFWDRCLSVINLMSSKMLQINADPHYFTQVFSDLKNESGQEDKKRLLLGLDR
Insulin receptor (Homo sapiens), sequence (P06213 28-758 limits assumed): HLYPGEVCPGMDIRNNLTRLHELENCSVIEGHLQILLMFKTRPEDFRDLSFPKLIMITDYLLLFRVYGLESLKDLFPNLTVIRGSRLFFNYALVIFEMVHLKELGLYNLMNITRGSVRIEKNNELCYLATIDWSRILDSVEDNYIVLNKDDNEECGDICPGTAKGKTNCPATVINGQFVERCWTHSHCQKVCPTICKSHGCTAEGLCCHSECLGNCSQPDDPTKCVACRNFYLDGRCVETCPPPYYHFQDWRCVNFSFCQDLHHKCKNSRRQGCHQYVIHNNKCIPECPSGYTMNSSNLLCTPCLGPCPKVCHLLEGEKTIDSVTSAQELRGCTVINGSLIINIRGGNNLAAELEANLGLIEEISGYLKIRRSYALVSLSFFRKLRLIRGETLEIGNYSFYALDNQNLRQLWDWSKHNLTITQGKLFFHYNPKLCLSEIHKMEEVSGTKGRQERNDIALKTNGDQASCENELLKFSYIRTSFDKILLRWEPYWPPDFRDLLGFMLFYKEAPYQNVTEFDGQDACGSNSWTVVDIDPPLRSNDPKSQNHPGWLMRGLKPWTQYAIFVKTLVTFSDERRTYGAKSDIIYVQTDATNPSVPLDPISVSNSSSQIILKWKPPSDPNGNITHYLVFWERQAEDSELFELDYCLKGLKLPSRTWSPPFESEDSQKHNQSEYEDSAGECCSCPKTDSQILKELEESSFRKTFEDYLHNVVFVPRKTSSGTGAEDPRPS
Insulin receptor (Homo sapiens), sequence (P06213 763-1382 limits assumed): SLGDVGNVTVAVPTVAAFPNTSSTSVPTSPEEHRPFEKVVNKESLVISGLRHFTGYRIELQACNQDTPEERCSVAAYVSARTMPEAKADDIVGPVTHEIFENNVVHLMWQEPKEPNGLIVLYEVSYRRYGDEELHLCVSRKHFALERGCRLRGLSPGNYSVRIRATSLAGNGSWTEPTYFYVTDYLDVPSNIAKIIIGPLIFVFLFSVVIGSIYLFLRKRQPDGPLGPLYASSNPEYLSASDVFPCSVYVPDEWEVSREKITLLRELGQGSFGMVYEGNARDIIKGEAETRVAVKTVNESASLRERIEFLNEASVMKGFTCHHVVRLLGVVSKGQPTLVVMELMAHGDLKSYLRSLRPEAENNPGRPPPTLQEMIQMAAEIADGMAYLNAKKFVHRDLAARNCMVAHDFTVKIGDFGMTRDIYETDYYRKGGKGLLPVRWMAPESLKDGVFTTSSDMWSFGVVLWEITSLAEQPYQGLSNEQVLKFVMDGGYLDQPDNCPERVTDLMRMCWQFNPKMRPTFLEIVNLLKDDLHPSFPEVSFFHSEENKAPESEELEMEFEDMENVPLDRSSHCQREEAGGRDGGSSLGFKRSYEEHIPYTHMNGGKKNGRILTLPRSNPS
Proto-oncogene tyrosine-protein kinase ROS (Homo sapiens), sequence (P08922 whole entry): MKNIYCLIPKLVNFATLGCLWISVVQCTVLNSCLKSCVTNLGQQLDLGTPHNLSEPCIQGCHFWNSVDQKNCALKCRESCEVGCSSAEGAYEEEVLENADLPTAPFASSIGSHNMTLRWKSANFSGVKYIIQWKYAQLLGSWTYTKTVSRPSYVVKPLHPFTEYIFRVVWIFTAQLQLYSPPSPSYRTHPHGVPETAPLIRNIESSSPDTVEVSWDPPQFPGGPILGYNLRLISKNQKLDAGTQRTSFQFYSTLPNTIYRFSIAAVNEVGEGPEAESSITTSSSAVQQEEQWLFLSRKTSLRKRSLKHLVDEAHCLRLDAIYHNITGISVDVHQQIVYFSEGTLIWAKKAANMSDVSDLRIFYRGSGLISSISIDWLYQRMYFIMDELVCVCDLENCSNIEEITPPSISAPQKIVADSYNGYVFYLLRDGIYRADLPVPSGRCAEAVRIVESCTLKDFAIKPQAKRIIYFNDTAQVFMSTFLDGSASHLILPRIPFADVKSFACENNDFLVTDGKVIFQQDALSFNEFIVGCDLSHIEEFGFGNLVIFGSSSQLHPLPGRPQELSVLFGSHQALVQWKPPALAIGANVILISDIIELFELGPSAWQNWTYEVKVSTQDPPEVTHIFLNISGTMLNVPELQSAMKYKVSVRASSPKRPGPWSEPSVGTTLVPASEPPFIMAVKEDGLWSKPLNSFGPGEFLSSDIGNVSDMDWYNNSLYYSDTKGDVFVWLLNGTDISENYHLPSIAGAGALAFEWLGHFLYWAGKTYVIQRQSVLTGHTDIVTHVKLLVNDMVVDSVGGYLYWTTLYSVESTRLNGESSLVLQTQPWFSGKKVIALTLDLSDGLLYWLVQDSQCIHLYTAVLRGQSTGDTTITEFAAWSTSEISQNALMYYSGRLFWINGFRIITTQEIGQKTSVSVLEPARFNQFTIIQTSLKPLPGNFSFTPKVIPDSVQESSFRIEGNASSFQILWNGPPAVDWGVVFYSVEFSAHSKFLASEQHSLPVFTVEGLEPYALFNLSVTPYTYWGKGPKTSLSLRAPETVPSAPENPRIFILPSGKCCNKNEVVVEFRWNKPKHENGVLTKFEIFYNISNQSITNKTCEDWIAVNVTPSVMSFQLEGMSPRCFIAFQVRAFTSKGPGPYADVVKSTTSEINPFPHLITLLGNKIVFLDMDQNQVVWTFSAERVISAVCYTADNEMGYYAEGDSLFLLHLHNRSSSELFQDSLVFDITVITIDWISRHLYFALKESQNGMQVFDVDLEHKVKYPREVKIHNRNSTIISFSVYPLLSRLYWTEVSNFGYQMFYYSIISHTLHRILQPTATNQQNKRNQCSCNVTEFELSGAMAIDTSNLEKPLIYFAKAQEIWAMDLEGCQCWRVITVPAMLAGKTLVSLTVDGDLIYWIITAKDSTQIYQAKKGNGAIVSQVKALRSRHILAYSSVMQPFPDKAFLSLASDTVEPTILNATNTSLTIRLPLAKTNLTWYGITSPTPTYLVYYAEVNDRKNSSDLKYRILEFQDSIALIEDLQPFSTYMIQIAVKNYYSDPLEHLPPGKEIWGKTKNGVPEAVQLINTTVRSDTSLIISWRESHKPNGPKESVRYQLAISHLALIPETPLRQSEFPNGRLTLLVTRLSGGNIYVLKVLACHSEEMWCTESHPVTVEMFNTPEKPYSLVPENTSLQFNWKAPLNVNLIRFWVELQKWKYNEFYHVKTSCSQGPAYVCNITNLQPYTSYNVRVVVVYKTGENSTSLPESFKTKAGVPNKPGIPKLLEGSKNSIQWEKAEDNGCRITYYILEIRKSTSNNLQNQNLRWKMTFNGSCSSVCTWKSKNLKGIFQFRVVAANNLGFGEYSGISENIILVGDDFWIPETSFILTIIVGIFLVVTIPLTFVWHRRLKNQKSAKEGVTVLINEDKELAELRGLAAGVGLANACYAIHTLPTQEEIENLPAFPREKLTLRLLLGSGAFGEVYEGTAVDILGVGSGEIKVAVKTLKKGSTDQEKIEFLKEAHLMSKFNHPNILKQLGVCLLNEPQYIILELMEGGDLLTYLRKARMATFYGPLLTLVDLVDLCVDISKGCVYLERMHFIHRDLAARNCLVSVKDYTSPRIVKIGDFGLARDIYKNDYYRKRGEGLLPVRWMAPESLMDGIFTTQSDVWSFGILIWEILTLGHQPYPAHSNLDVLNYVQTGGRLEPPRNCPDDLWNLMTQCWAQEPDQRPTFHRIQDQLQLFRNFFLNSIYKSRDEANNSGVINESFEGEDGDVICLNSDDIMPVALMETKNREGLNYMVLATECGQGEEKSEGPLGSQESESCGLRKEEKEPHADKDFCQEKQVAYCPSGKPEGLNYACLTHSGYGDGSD
Tyrosine-protein kinase Yes (Homo sapiens), sequence (P07947 2-543 limits assumed): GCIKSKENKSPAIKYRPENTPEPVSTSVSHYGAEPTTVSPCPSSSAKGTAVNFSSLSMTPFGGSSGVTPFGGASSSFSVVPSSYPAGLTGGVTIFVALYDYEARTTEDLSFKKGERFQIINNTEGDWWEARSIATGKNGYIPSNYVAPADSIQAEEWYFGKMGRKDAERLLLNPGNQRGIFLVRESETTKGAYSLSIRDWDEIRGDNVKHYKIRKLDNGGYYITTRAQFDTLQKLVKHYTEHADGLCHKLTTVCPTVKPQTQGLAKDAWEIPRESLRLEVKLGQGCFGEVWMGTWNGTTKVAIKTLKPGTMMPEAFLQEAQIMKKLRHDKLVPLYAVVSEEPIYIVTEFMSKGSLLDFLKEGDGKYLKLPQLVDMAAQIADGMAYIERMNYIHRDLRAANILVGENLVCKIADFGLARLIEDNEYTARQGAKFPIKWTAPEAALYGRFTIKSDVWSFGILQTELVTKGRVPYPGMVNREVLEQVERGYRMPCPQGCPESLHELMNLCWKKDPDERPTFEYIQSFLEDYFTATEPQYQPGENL
Casein kinase I isoform alpha (Homo sapiens), sequence (P48729 2-337 limits assumed): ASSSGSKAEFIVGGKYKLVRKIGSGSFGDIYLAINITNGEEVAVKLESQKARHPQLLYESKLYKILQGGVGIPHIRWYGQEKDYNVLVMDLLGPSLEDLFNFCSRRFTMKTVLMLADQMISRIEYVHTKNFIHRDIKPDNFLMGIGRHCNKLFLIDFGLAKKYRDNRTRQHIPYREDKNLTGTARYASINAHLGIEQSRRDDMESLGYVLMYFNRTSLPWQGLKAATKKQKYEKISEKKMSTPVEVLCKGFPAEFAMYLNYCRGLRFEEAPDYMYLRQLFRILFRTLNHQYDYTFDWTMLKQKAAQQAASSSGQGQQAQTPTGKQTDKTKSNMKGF

For the compound `COCCNc1nc2ccc(C#CC3(O)CCCCC3)cc2n1-c1ccnc(N)n1`, the inhibition is -0.5% in assay [1]; -6.3% in assay [2]; 3.6% in assay [3]; 11.7% in [4]; 6.6% in [5]; 9.9% in [6]. Also, the inhibition is 3.5% in [7]; 4.4% in assay [8]; 1.9% in assay [9]; 4.7% in assay [10]; -1.6% in assay [11]; 6.8% in assay [12]. For the same compound, the inhibition was -2.7% in [13]; 2.9% in assay [14]; 13.1% in [15]; -5% in assay [16]; -9.6% in [17]; 4.2% in [18]. In addition, the inhibition in [19] was 4.3%; in assay [20], -1.4%; in [21] it was 4.8%; in assay [22], 3.9%; in assay [23] it was -6.6%; in assay [24], 4.6%. Further, the inhibition turned out to be 8.8% in [25]; 2.8% in assay [26]; 0.5% in assay [27]; 9.3% in assay [28]; 6.9% in assay [29].

Regarding `CN1CCc2cc(-c3cnc4[nH]cc(C(=O)c5ccccc5Cl)c4c3)ccc2C1`, the inhibition in assay [30] stood at 24.8%; in [31], 57.3%; in [32] it was 31%; in the assay listed under Homo sapiens, 105%; in assay [33] it was 4.1%; in [34] it was 48.2%. The inhibition stood at 85.5% in assay [35], 5% in assay [36], 93% in [37] and 4.3% in [38].
